In PubChem BioAssay (NCI):
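Interpolation was linear, between the two tested concentrations surrounding the appropriate level; five concentrations were tested over 48 hours in 96-well plates. GI50 = concentration required for 50% inhibition of growth. Definition used: TGI = concentration required for complete inhibition of growth.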

Assays:
Assay in all cases: growth of human tumour cells (NCI), 48 h
SF-268 CNS = tested on: SF-268 CNS
EKVX NSCLC = tested on: EKVX NSCLC
SK-MEL-2 melanoma = tested on: SK-MEL-2 melanoma
SNB-75 CNS = tested on: SNB-75 CNS
OVCAR-8 ovarian = tested on: OVCAR-8 ovarian
RXF 393 renal = tested on: RXF 393 renal
NCI-H23 lung = tested on: NCI-H23 lung
UACC-257 melanoma = tested on: UACC-257 melanoma
ACHN renal = tested on: ACHN renal
HOP-92 NSCLC = tested on: HOP-92 NSCLC

SMILES	GI50 (SF-268 CNS) [µM]	TGI (SF-268 CNS) [µM]	GI50 (EKVX NSCLC) [µM]	TGI (EKVX NSCLC) [µM]	GI50 (SK-MEL-2 melanoma) [µM]	TGI (SK-MEL-2 melanoma) [µM]	GI50 (SNB-75 CNS) [µM]	TGI (SNB-75 CNS) [µM]	GI50 (OVCAR-8 ovarian) [µM]	TGI (OVCAR-8 ovarian) [µM]	GI50 (RXF 393 renal) [µM]	TGI (RXF 393 renal) [µM]	GI50 (NCI-H23 lung) [µM]	TGI (NCI-H23 lung) [µM]	GI50 (UACC-257 melanoma) [µM]	TGI (UACC-257 melanoma) [µM]	GI50 (ACHN renal) [µM]	TGI (ACHN renal) [µM]	TGI (HOP-92 NSCLC) [µM]
Cn1cc(-c2csc(-c3cn(C)c4ccc(Br)cc34)n2)c2cnccc21	1.9	3.67	1.86	3.48	1.93	3.76	1.28	2.6	1.9	3.61	1.7	3.2	1.93	3.65	1.95	3.63	1.97	3.4	
[O-]c1c[n+](CCCC[n+]2cc([O-])on2)no1		> 100		> 100		> 100		> 100		> 100		> 100		> 100		> 100		> 100	> 100
NC(=O)c1ccc(NS(=O)(=O)c2ccc(N)cc2)nc1		> 100		> 100		> 100		> 100		> 100				> 100		> 100		> 100	> 100
CN(C)CC1CCCC(CN2CCCCC2)C1=O (stereo not given)		40.2		28.7		31.1		43.2		31.5		26.6		35.8		30.8		13.6	3.8
CC(N)C(=O)OCN1C(=O)C2C3C=CC(C2C1=O)C1C2C(=O)N(COC(=O)C(C)N)C(=O)C2C31 (stereo not given)		47.9		> 100		39		85.5		47.8		38.7		43.2		75.4		70.4	> 100
Nc1nc(Cl)cc(NCCCNc2cc(Cl)nc(N)n2)n1		> 100		> 100		> 100		> 100		> 100		> 100		> 100		> 100			> 100
C1CCC(OCc2nnn3c2CCC3)OC1 (stereo not given)				> 100		> 100		> 100		> 100		> 100		> 100		> 100		> 100	> 100
C=C1C(=O)OC2/C=C(\C)C3OC3/C=C(/C(=O)OC)C(O)C(OC(=O)C3(C)OC3C)C12 (stereo not given)		29.9		7.44		6.46		26.3		5.85		2.22		3.5		3.45		10.7	5.68
Cc1ccccc1[P+](C)(c1ccccc1C)c1ccccc1C		> 100		35		34.7		40.8		45.4		> 100		27.3		15.8		29.3	58
O=c1oc2ccccc2n1P(=O)(n1c(=O)oc2ccccc21)n1c(=O)oc2ccccc21		> 100		> 100		> 100		> 100				> 100		> 100		> 100		> 100	> 100
CO[C@H]1ON=C(c2c(C)cc(C)cc2C)[C@@H]1C1(c2ccccc2)ON=C(c2c(C)cc(C)cc2C)O1 (stereo not given in full)		> 100		> 100		> 100				> 100		> 100		> 100		> 100		> 100	> 100
c1ccc(CSC2(SCc3ccccc3)CCCC2)cc1		> 10		> 10		> 10		> 10		> 10		> 10		> 10				> 10	
CC(C)OC(=O)Nc1cccc(Cl)c1		> 100		> 100		> 100		> 100		> 100		> 100		> 100		> 100		> 100	> 100
CS/C(C#N)=C(\C#N)SC		58		62.2		31.7		> 100		6.06		5.11		79.4		30.6		29.9	
Cc1ccc(S(=O)(=O)N2c3ccccc3[C@H]3CCc4c([nH]c5ccccc45)[C@H]32)cc1		> 100		> 100		> 100		> 100		> 100		> 100		> 100		> 100		> 100	> 100
CN1C(=O)CN2C(Cl)(Cl)C2(c2ccccc2F)c2cc([N+](=O)[O-])ccc21 (stereo not given)		> 100		> 100		> 100		> 100		> 100		66		> 100		> 100		> 100	91.4
